Source: ChEMBL document CHEMBL1201862, “PubChem BioAssay data set” (2004)
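These data come from cells grown in 96-well plates and exposed to compound for 48 hours at five concentrations. At the GI50, growth is halved.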 Activity calls are given as the source filed them. Rule as the data show it: active = GI50 up to about 1.1 µM and inactive = higher.

Assays:
Assay in all cases: growth of human tumour cells (NCI), 48 h
786-0 = system: 786-0
BT-549 = system: BT-549
CCRF-CEM = system: CCRF-CEM
DU-145 = system: DU-145
HCC 2998 = system: HCC 2998
HOP-92 = system: HOP-92
HT-29 = system: HT-29
Hs-578T = system: Hs-578T
LOX IMVI = system: LOX IMVI
MCF7 = system: MCF7
MDA-MB-231 = system: MDA-MB-231
MOLT-4 = system: MOLT-4
NCI/ADR-RES = system: NCI/ADR-RES
RPMI-8226 = system: RPMI-8226
SK-MEL-2 = system: SK-MEL-2
SNB-75 = system: SNB-75
SW-620 = system: SW-620
UO-31 = system: UO-31
EKVX = system: EKVX
NCI-H226 = system: NCI-H226

Structure (SMILES) | GI50 (786-0) | GI50 (BT-549) | GI50 (CCRF-CEM) | GI50 (DU-145) | GI50 (HCC 2998) | GI50 (HOP-92) | GI50 (HT-29) | GI50 (Hs-578T) | GI50 (LOX IMVI) | GI50 (MCF7) | GI50 (MDA-MB-231) | GI50 (MOLT-4) | GI50 (NCI/ADR-RES) | GI50 (RPMI-8226) | GI50 (SK-MEL-2) | GI50 (SNB-75) | GI50 (SW-620) | GI50 (UO-31) | GI50 (EKVX) | GI50 (NCI-H226)
Oc1cc(-c2cccc(Cl)c2)nc2cc3c(cc12)OCO3 | 0.294 µM (active) | 0.284 µM (active) | 0.519 µM (active) | 0.284 µM (active) | 1.31 µM (inactive) | 0.951 µM (active) | 2 µM (inactive) | 0.255 µM (active) | 0.305 µM (active) | 2.83 µM (inactive) | 2.44 µM (inactive) | 1.89 µM (inactive) | 0.208 µM (active) | 0.498 µM (active) | 0.207 µM (active) | 0.258 µM (active) | 0.351 µM (active) | 0.33 µM (active) | – | –
O=C(c1ccccc1F)c1c(NCc2ccccc2)c(=O)c1=O | > 100 µM (inactive) | > 100 µM (inactive) | > 100 µM (inactive) | > 100 µM (inactive) | > 100 µM (inactive) | > 100 µM (inactive) | > 100 µM (inactive) | > 100 µM (inactive) | > 100 µM (inactive) | > 100 µM (inactive) | > 100 µM (inactive) | > 100 µM (inactive) | > 100 µM (inactive) | > 100 µM (inactive) | > 100 µM (inactive) | > 100 µM (inactive) | > 100 µM (inactive) | > 100 µM (inactive) | > 100 µM (inactive) | > 100 µM (inactive)
O=C(O)C(Oc1nc(S)nc(S)n1)(c1ccc(Cl)cc1)c1ccc(Cl)cc1 | > 100 µM (inactive) | > 100 µM (inactive) | – | > 100 µM (inactive) | 92.7 µM (inactive) | > 100 µM (inactive) | > 100 µM (inactive) | > 100 µM (inactive) | > 100 µM (inactive) | > 100 µM (inactive) | > 100 µM (inactive) | > 100 µM (inactive) | > 100 µM (inactive) | > 100 µM (inactive) | > 100 µM (inactive) | > 100 µM (inactive) | > 100 µM (inactive) | > 100 µM (inactive) | > 100 µM (inactive) | > 100 µM (inactive)
CC(O)c1cc2c(s1)C(=O)c1scc(C(C)O)c1C2=O (stereo not given) | 2.07 µM (inactive) | 0.211 µM (active) | 1.18 µM (inactive) | 0.614 µM (active) | 1.66 µM (inactive) | 1.96 µM (inactive) | 2.43 µM (inactive) | 0.394 µM (active) | 0.172 µM (active) | 0.413 µM (active) | 0.316 µM (active) | 0.753 µM (active) | 0.283 µM (active) | 0.579 µM (active) | 0.224 µM (active) | 0.29 µM (active) | 0.321 µM (active) | 0.337 µM (active) | 0.991 µM (active) | 2 µM (inactive)
NCCOc1cccc(C2(N3CCCCC3)CCCCC2)c1 | 13.3 µM (inactive) | 19.1 µM (inactive) | 16.7 µM (inactive) | > 100 µM (inactive) | 19.9 µM (inactive) | 0.773 µM (active) | 15.5 µM (inactive) | 16.9 µM (inactive) | 14.7 µM (inactive) | 38.8 µM (inactive) | 21 µM (inactive) | 19.4 µM (inactive) | > 100 µM (inactive) | 20.9 µM (inactive) | 21.8 µM (inactive) | 32.7 µM (inactive) | 31.5 µM (inactive) | 13.7 µM (inactive) | 21.5 µM (inactive) | > 100 µM (inactive)
COc1ccc(/C=C\c2cc(OC)c(OC)c(OC)c2)cc1OC | 0.198 µM (active) | 0.912 µM (active) | 0.13 µM (active) | 0.286 µM (active) | 0.134 µM (active) | 9.66 µM (inactive) | 0.124 µM (active) | 0.0604 µM (active) | 0.32 µM (active) | 0.0968 µM (active) | 0.472 µM (active) | 0.194 µM (active) | 0.222 µM (active) | 0.162 µM (active) | 0.0641 µM (active) | 0.098 µM (active) | 0.149 µM (active) | 2.21 µM (inactive) | 0.188 µM (active) | 0.056 µM (active)
O=S1(=O)NC2CCC3NS(=O)(=O)NC4CCC(N1)N4S(=O)(=O)N23 (stereo not given) | > 100 µM (inactive) | > 100 µM (inactive) | – | > 100 µM (inactive) | > 100 µM (inactive) | > 100 µM (inactive) | > 100 µM (inactive) | > 100 µM (inactive) | > 100 µM (inactive) | > 100 µM (inactive) | > 100 µM (inactive) | – | > 100 µM (inactive) | > 100 µM (inactive) | > 100 µM (inactive) | > 100 µM (inactive) | > 100 µM (inactive) | > 100 µM (inactive) | > 100 µM (inactive) | > 100 µM (inactive)
